Legend:
[1] = system: spontaneous canine pemphigus foliaceus; assay: spontaneous canine pemphigus foliaceus; conditions: dog, in vivo
[2] = system: patients with immune thrombocytopenia who initiated 400 mg BID; assay: Clinical predictors of response, exploratory analysis of Phase 1/2 study (univariate logistic regression); type: in vivo, human
Excerpt: Clinical predictors were selected based on clinical considerations anticipated to be associated with platelet response and evaluated by univariate logistic regression models. For continuous variables, the t test was used to test for differences, whereas for categorical variables, the Fisher exact test was used. PK exposure at steady-state was estimated based on post hoc analysis from a previously established population PK model.

## CC(C)(C=C(C#N)C(=O)N1CCC[C@@H](n2nc(-c3ccc(Oc4ccccc4)cc3F)c3c(N)ncnc32)C1)N1CCN(C2COC2)CC1 [rilzabrutinib, (R)-2-[3-[4-amino-3-(2-fluoro-4-phenoxy-phenyl)pyrazolo[3,4-d]pyrimidin-1-yl]piperidine-1-carbonyl]-4-methyl-4-[4-(oxetan-3-yl)piperazin-1-yl]pent-2-enenitrile]
[1]
  anti-inflammatory effects: rapid and significant anti-inflammatory effects
[2]; patients who received prior rituximab
  early responders, proportion of patients: 14%
[2]; patients with no prior rituximab
  early responders, proportion of patients: 48%
[2]; patients with prior rituximab
  responders, proportion of patients: 23%
[2]; patients without prior TPO-RA
  responders, proportion of patients: 64%
[2]; patients without prior rituximab
  responders, proportion of patients: 57%
